Data on five compounds can be found in paper PMC5623054, “Cloning and Functional Characterization of Octβ2-Receptor and Tyr1-Receptor in the Chagas Disease Vector, Rhodnius prolixus” (Frontiers in Physiology, 2017).

Holding throughout (type): cell-based
For experiment [1], the target named is T1, RhoprTyr1-R (Rhodnius prolixus, UniProt A0A291L8I9).
T1 construct: full ORF (455 amino acids; GenBank MF377527) transiently expressed in HEK293/CNG cells
T1 sequence (A0A291L8I9 1-455): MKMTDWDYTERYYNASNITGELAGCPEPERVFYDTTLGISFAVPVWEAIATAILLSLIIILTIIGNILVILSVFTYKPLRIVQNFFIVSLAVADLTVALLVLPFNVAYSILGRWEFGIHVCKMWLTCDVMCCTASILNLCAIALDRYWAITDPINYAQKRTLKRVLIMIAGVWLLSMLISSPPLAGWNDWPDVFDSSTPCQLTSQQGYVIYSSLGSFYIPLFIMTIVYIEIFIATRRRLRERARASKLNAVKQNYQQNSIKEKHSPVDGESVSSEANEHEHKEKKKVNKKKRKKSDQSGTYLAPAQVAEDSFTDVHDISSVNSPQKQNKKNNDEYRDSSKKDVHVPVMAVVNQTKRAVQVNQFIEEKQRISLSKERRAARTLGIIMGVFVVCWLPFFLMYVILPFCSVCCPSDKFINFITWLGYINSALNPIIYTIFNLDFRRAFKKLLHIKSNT
As to the kind of experiment: aequorin bioluminescence Ca2+ assay in transfected HEK293/CNG cells, dose-response (agonist).

The target of experiment [2] is T2, RhoprOctβ2-R (Rhodnius prolixus, UniProt A0A291L8J3).
T2 construct: full ORF (447 amino acids; GenBank MF377526) transiently expressed in HEK293/CNG cells
T2 sequence (A0A291L8J3 1-447): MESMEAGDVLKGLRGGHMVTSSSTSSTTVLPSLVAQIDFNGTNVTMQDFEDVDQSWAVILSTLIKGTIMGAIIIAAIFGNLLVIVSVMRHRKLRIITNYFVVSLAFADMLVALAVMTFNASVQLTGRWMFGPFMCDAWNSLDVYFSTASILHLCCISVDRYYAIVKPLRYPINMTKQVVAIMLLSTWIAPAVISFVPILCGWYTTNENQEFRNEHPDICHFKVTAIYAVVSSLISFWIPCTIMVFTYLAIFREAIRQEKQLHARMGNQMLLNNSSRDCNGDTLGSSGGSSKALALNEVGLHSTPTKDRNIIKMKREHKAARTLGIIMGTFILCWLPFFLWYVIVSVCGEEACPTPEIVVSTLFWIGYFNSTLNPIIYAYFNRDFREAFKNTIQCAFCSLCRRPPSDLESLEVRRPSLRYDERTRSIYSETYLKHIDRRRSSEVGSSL
As to the kind of experiment: aequorin bioluminescence Ca2+ assay in transfected HEK293/CNG cells, dose-response (full agonist).

Experiment [3] addresses T2, RhoprOctβ2-R. As to the kind of experiment: aequorin bioluminescence Ca2+ assay in transfected HEK293/CNG cells, dose-response (partial agonist).
The target in experiment [4] is T2, RhoprOctβ2-R. As to the kind of experiment: antagonism of octopamine-induced aequorin luminescence in HEK293/CNG cells, single dose […].
The target of experiment [5] is T2, RhoprOctβ2-R. As to the kind of experiment: partial antagonism of octopamine-induced aequorin luminescence in HEK293/CNG cells, single dose […].
Experiment [6] has as its target T1, RhoprTyr1-R. As to the kind of experiment: antagonism of tyramine-induced aequorin luminescence in HEK293/CNG cells, single dose […].

For orientation: EC50 means the concentration at which the effect is half-maximal. Lower therefore signals higher potency in that assay. With `NCC(O)c1ccc(O)cc1` (stereo not shown) [OA, octopamine], the EC50 on RhoprTyr1-R [1] is 6880 nM; on RhoprOctβ2-R [2], 367 nM.

On to `NCCc1ccc(O)cc1` [TA, tyramine], for which the EC50 on RhoprTyr1-R [1] came out at 51.7 nM; on RhoprOctβ2-R [3], 3850 nM.

Turning to `CN(C)Cc1c[nH]c2ccccc12` [gramine], the “antagonism of octopamine-induced aequorin luminescence in HEK293/CNG cells, sing” value at RhoprOctβ2-R [4] is “Phentolamine and gramine significantly reduced octopamine-induced receptor activation”.

As to `CCN(CC)CCNC(=O)c1cc(Cl)c(N)cc1OC` [metoclopramide], at RhoprOctβ2-R [5], the “partial antagonism of octopamine-induced aequorin luminescence in HEK293/CNG cel” value is “RhoprOctβ2-R was antagonized by phentolamine > gramine > metoclopramide”.

As to `CC(COc1ccccc1)N(CCCl)Cc1ccccc1` (stereo not shown) [phenoxybenzamine], the “antagonism of tyramine-induced aequorin luminescence in HEK293/CNG cells, single” value on RhoprTyr1-R [6] was “notably yohimbine and phenoxybenzamine, reduced the tyramine-induced activation of the RhoprTyr1-R”.
